According to article PMC8222254, “Self-assembly of an anion receptor with metal-dependent kinase inhibition and potent in vitro anti-cancer properties” (Nature Communications, 2021):
pIC50: −log10 of the molar value. Values joined by “and” are separate entries in the source; they are usually repeats but may differ in a detail not shown here. Equal entries are not always repeated. Where two headings read alike, the source gives them in different places.

What was measured:
Test in all cases: Chemosensitivity, 96 h continuous exposure, MTT assay;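 for SI (NPI): adult human brain neural progenitor non-cancer cells from an epilepsy surgery patient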;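 for Selectivity Index using the NPI non-cancer cell line: adult human brain neural progenitor non-cancer cells from an epilepsy surgery patient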
Format in all cases: cell-based, human
H460 = tested on: H460;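 for SI (NPI): adult human brain neural progenitor non-cancer cells from an epilepsy surgery patient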;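 for Selectivity Index using the NPI non-cancer cell line: adult human brain neural progenitor non-cancer cells from an epilepsy surgery patient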
How it was run: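 Cells were seeded overnight at 37 °C (2 × 10^3/well; GBM1 at 3 × 10^3/well on poly-L-ornithine/laminin in Neurobasal with hFGF/rhEGF), then exposed to compound concentration ranges for 96 h. Viability was read by MTT (4 h, formazan in DMSO, A540) and IC50 taken from dose–response curves.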

HCT116 p53+/+ = tested on: HCT116 p53+/+
How it was run: (§1)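 Growth inhibition is measured by MTT after cells are dosed for 96 h without washout. The 50% growth-reduction concentration is then interpolated from the curves.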

HCT116 p53-/- = tested on: HCT116 p53-/-
How it was run: as §1

MiaPaCa2 = tested on: MiaPaCa2
How it was run: as §1

SMILES: [Cu+2].[Cu+2].[Cu+2].c1ccc(-c2csc(NCCN(CCNc3nc(-c4ccccn4)cs3)CCNc3nc(-c4ccccn4)cs3)n2)nc1.c1ccc(-c2csc(NCCN(CCNc3nc(-c4ccccn4)cs3)CCNc3nc(-c4ccccn4)cs3)n2)nc1 [[L2Cu3]6+]
- pIC50 (H460; H460, 96 h, MTT, individual run, read-out: IC50 values for each replicate): 6.59 and 6.63 and 6.35 and 6.79
- pIC50 (H460; H460, 96 h, MTT, mean of at least 3 independent experiments, read-out: Mean IC50): 6.56
- pIC50 (H460; H460, mean of replicates, read-out: Mean IC50): 6.56
- pIC50 (H460; H460, read-out: Mean IC50 values): 6.56
- Selectivity index (ARPE19) (H460; IC50 ARPE-19 / IC50 H460): 190.69
- Selectivity index (MCF10A) (H460; IC50 MCF10A / IC50 H460): 174.86
- Selectivity Index using the NPI non-cancer cell line (H460; IC50 NP1 / IC50 H460): 156.12
- SI (ARPE19) (H460; mean IC50 ARPE-19 / mean IC50 H460): 190.69
- SI (MCF10A) (H460; mean IC50 MCF10A / mean IC50 H460): 174.86
- SI (NPI) (H460; mean IC50 NP1 / mean IC50 H460): 156.12
- Relative potency (+ anion to no anion), Ratio + anion:no anion (H460; ratio of IC50, H460): 1
- Selectivity indices relative to ARPE-19, Ratio + anion:no anion (H460; ratio of SI (ARPE-19), H460): 1
- Selectivity indices relative to MCF10A, Ratio + anion:no anion (H460; ratio of SI (MCF 10A), H460): 1
- pIC50 (HCT116 p53+/+; HCT116 p53+/+, 96 h, MTT, individual run, read-out: IC50 values for each replicate): 6.62 and 6.27 and 6.28 and 6.30 and 6.17
- pIC50 (HCT116 p53+/+; HCT116 p53+/+, 96 h, MTT, mean of at least 3 independent experiments, read-out: Mean IC50): 6.30
- pIC50 (HCT116 p53+/+; HCT116 p53+/+, mean of replicates, read-out: Mean IC50): 6.30
- pIC50 (HCT116 p53+/+; HCT116 p53+/+, read-out: Mean IC50 values): 6.30
- Selectivity index (ARPE19) (HCT116 p53+/+; IC50 ARPE-19 / IC50 HCT116 p53+/+): 106.11 and 106.2
- Selectivity index (MCF10A) (HCT116 p53+/+; IC50 MCF10A / IC50 HCT116 p53+/+): 97.30
- Selectivity Index using the NPI non-cancer cell line (HCT116 p53+/+; IC50 NP1 / IC50 HCT116 p53+/+): 86.88
- SI (ARPE19) (HCT116 p53+/+; mean IC50 ARPE-19 / mean IC50 HCT116 p53+/+): 106.11
- SI (MCF10A) (HCT116 p53+/+; mean IC50 MCF10A / mean IC50 HCT116 p53+/+): 97.30
- SI (NPI) (HCT116 p53+/+; mean IC50 NP1 / mean IC50 HCT116 p53+/+): 86.88
- Relative potency (+ anion to no anion), Ratio + anion:no anion (HCT116 p53+/+; ratio of IC50, HCT116 p53+/+): 1
- Selectivity indices relative to ARPE-19, Ratio + anion:no anion (HCT116 p53+/+; ratio of SI (ARPE-19), HCT116 p53+/+): 1
- Selectivity indices relative to MCF10A, Ratio + anion:no anion (HCT116 p53+/+; ratio of SI (MCF 10A), HCT116 p53+/+): 1
- pIC50 (HCT116 p53-/-; HCT116 p53-/-, 96 h, MTT, individual run, read-out: IC50 values for each replicate): 6.62 and 7.05 and 6.72 and 7.06 and 7.17 and 6.81
- pIC50 (HCT116 p53-/-; HCT116 p53-/-, 96 h, MTT, mean of at least 3 independent experiments, read-out: Mean IC50): 6.86
- pIC50 (HCT116 p53-/-; HCT116 p53-/-, mean of replicates, read-out: Mean IC50): 6.86
- pIC50 (HCT116 p53-/-; HCT116 p53-/-, read-out: Mean IC50 values): 6.86
- Selectivity index (ARPE19) (HCT116 p53-/-; IC50 ARPE-19 / IC50 HCT116 p53-/-): 384.16 and 384.82
- Selectivity index (MCF10A) (HCT116 p53-/-; IC50 MCF10A / IC50 HCT116 p53-/-): 352.26
- Selectivity Index using the NPI non-cancer cell line (HCT116 p53-/-; IC50 NP1 / IC50 HCT116 p53-/-): 314.53
- SI (ARPE19) (HCT116 p53-/-; mean IC50 ARPE-19 / mean IC50 HCT116 p53-/-): 384.16
- SI (MCF10A) (HCT116 p53-/-; mean IC50 MCF10A / mean IC50 HCT116 p53-/-): 352.26
- SI (NPI) (HCT116 p53-/-; mean IC50 NP1 / mean IC50 HCT116 p53-/-): 314.53
- Relative potency (+ anion to no anion), Ratio + anion:no anion (HCT116 p53-/-; ratio of IC50, HCT116 p53-/-): 1
- Selectivity indices relative to ARPE-19, Ratio + anion:no anion (HCT116 p53-/-; ratio of SI (ARPE-19), HCT116 p53-/-): 1
- Selectivity indices relative to MCF10A, Ratio + anion:no anion (HCT116 p53-/-; ratio of SI (MCF 10A), HCT116 p53-/-): 1
- Selectivity index (ARPE19) (MiaPaCa2; IC50 ARPE-19 / IC50 MiaPaCa2): 4.46
- Selectivity index (MCF10A) (MiaPaCa2; IC50 MCF10A / IC50 MiaPaCa2): 4.09
- Selectivity Index using the NPI non-cancer cell line (MiaPaCa2; IC50 NP1 / IC50 MiaPaCa2): 3.65
- pIC50 (MiaPaCa2; MiaPaCa2, 96 h, MTT, individual run, read-out: IC50 values for each replicate): 4.77 and 5.18 and 5.20 and 5.28 and 4.75
- pIC50 (MiaPaCa2; MiaPaCa2, 96 h, MTT, mean of at least 3 independent experiments, listed as [L2Cu3]^6+, read-out: Mean IC50): < 5.00
- pIC50 (MiaPaCa2; MiaPaCa2, 96 h, MTT, mean of at least 3 independent experiments, read-out: Mean IC50): 4.93
- pIC50 (MiaPaCa2; MiaPaCa2, mean of replicates, read-out: Mean IC50): 4.93
- pIC50 (MiaPaCa2; MiaPaCa2, read-out: Mean IC50 values): 4.93
- SI (ARPE19) (MiaPaCa2; mean IC50 ARPE-19 / mean IC50 MiaPaCa2): 4.46
- SI (MCF10A) (MiaPaCa2; mean IC50 MCF10A / mean IC50 MiaPaCa2): 4.09
- SI (NPI) (MiaPaCa2; mean IC50 NP1 / mean IC50 MiaPaCa2): 3.65
- Relative potency (+ anion to no anion), Ratio + anion:no anion (MiaPaCa2; ratio of IC50, MiaPaCa2): 1
- Selectivity indices relative to ARPE-19, Ratio + anion:no anion (MiaPaCa2; ratio of SI (ARPE-19), MiaPaCa2): 1
- Selectivity indices relative to MCF10A, Ratio + anion:no anion (MiaPaCa2; ratio of SI (MCF 10A), MiaPaCa2): 1
